Results: US10301272B2, “Carboxamide or sulfonamide substituted thiazoles and related derivatives as modulators for the orphan nuclear receptor ROR[γ]” (Phenex Pharmaceuticals AG, priority 2012, dated 2019)
Where two headings read alike, the source gives them in different places.

How the values were obtained:
[1] = target: RORγ ligand binding domain (LBD) (Homo sapiens (Human), UniProt P51449); assay: TR-FRET Activity Assay (ligand sensing assay, LANCE); conditions: for pIC50 (FRET): TR-FRET, interaction of RORγ-LBD with coactivator peptide
RORγ = RORγ (Homo sapiens, UniProt P51449); assay: RORγ Gal4 Reporter Gene Assay; format: cell-based
Summary of the method: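 Cells at 5×10^5/well were transfected with RORγ fragments fused to the GAL4 DNA-binding domain (CMV promoter), a 5×GAL4-site firefly luciferase reporter and CMV-Renilla luciferase for normalization. About 4 h later serum-free MEM and compound were added (vehicle ≤0.1%). Cultures at 37 °C, 5% CO2; at least triplicates.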

[2] = firefly (FF) luciferase, 293T cells
[3] = renilla normalised (RENnorm) luciferase, 293T cells

Chain of RORγ ligand binding domain (LBD) (P51449 269-508): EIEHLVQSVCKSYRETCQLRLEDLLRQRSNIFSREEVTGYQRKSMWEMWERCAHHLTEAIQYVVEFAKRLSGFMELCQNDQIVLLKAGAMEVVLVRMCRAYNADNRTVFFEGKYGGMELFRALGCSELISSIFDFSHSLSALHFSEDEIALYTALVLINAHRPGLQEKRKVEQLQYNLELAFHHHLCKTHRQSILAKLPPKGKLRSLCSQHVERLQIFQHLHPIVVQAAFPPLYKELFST
Chain of RORγ (P51449 whole entry, looked up, the tested form may be a part): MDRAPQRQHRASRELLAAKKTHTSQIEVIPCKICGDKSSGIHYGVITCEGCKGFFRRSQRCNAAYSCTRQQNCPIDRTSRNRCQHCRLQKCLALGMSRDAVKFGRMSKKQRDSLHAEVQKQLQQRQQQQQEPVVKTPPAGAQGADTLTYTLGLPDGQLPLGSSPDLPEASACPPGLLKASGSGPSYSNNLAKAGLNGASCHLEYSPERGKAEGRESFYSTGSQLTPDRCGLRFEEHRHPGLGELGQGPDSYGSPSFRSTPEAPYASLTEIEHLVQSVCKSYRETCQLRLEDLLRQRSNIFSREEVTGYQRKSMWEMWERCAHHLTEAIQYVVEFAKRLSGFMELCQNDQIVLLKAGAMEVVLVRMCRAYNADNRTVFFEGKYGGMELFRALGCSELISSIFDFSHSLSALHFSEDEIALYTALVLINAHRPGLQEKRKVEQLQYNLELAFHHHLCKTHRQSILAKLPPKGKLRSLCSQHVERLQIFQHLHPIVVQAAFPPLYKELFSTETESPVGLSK

Row | pIC50 (FF) (RORγ; [2]) | pIC50 (REN) (RORγ; [3]) | IC50 [1] | IC50 (RORγ; firefly (FF) luciferase, 293T cells, read-out: pIC50 (FF) (converted)) | IC50 (RORγ; renilla normalised (RENnorm) luciferase, 293T cells, read-out: pIC50 (REN) (converted)) | SMILES | pIC50 (FRET) [1] | pIC50 (FF) (RORγ) | pIC50 (REN) (RORγ)
1 |  |  |  |  |  | CC(C)(C)NS(=O)(=O)c1ccc(-c2sc(C(=O)NC3CS(=O)(=O)C3)nc2CC2CCCCC2)cc1C(C)(C)O [15/3] | 6.9/7.9/7.9 | 6.9/7.9/7.9 | 6.9/7.9/7.9
2 |  |  |  |  |  | CC(C)(C)NS(=O)(=O)c1ccc(-c2sc(C(=O)NC3CS(=O)(=O)C3)nc2CC2CCCCC2)c(Cl)c1Cl [15/4] | 7.3/8.7/9.0 | 7.3/8.7/9.0 | 7.3/8.7/9.0
3 |  |  |  |  |  | CC(C)(C)NS(=O)(=O)c1ccc(-c2sc(C(=O)NC3C[S+]([O-])C3)nc2CC2CCCCC2)c(Cl)c1Cl (stereo not drawn) [15/5] | 6.9/8.5/8.4 | 6.9/8.5/8.4 | 6.9/8.5/8.4
4 |  |  |  |  |  | CC(C)(C)NS(=O)(=O)c1ccc(-c2sc(C(=O)NCc3ncc(S(C)(=O)=O)s3)nc2CC2CCCCC2)c(Cl)c1Cl [15/7] | 7.2/8.3/8.4 | 7.2/8.3/8.4 | 7.2/8.3/8.4
5 |  |  |  |  |  | CC(C)(C)NS(=O)(=O)c1ccc(-c2sc(C(=O)N3CC4(CC[S+]([O-])CC4)C3)nc2CC2CCCCC2)c2ccccc12 [15/9] | 6.4/7.8/7.9 | 6.4/7.8/7.9 | 6.4/7.8/7.9
6 |  |  |  |  |  | COC(c1nc(C(=O)N[C@H]2C[C@H](C(=O)O)C2)sc1-c1cc(C(C)(C)C)cc(C2(C)CC2)c1)C1CCCCC1 (stereo partly drawn) [19/2] | 6.1/7.0/7.0 | 6.1/7.0/7.0 | 6.1/7.0/7.0
7 |  |  |  |  |  | COC(c1nc(C(=O)NC2CCOCC2)sc1-c1cc(C(C)(C)C)cc(C2(C)CC2)c1)C1CCCCC1 (stereo not drawn) [19/3] | 6.8/7.1/7.1 | 6.8/7.1/7.1 | 6.8/7.1/7.1
8 |  |  |  |  |  | COC(c1nc(C(=O)N[C@H]2C[C@H](C(=O)O)C2)sc1-c1ccc(S(=O)(=O)NC(C)(C)C)c(Cl)c1Cl)C1CCCCC1 (stereo partly drawn) [19/4] | 6.0/7.3/7.2 | 6.0/7.3/7.2 | 6.0/7.3/7.2
9 |  |  |  |  |  | CC(C)(O)CNC(=O)c1nc(CC2CCCCC2)c(-c2ncc(S(=O)(=O)NC(C)(C)C)c3ccccc23)s1 [19/6] | 6.4/7.7/7.7 | 6.4/7.7/7.7 | 6.4/7.7/7.7
10 |  |  |  |  |  | Cc1c(C(=O)NC(C)(C)C)cc(-c2sc(C(=O)N[C@H]3C[C@H](C(=O)O)C3)nc2CC2CCCCC2)cc1C1(C)CC1 [19/7] | 5.8/6.8/6.8 | 5.8/6.8/6.8 | 5.8/6.8/6.8
11 |  |  |  |  |  | CC(C)(O)CNC(=O)c1nc(CC2CCCCC2)c(-c2ccc(S(=O)(=O)NC(C)(C)C)c3c(F)cccc23)s1 [19/8] | 7.0/7.7/7.8 | 7.0/7.7/7.8 | 7.0/7.7/7.8
12 |  |  |  |  |  | CC(C)(C)NS(=O)(=O)c1ccc(-c2sc(C(=O)N[C@H]3C[C@H](C(=O)O)C3)nc2CC2CCCCC2)c2c(F)cccc12 [19/9] | 6.3/7.0/7.1 | 6.3/7.0/7.1 | 6.3/7.0/7.1
13 |  |  |  |  |  | CC(C)(C)NS(=O)(=O)c1ccc(-c2sc(C(=O)N[C@H]3C[C@H](C(=O)O)C3)nc2CC2CCCCC2)c(F)c1OC(F)(F)F [19/10] | 6.7/8.4/8.5 | 6.7/8.4/8.5 | 6.7/8.4/8.5
14 | 6.8 | 6.7 |  |  |  | CC(C)(C)c1cc(-c2sc(C(=O)NC3CC(C(=O)O)C3)nc2CC2CCCCC2)nc(C2(C)CC2)n1 (stereo not drawn) [19/12] | 6.1 |  | 
15 | 6.9 | 6.9 |  |  |  | CC(C)(C)c1cc(-c2sc(C(=O)NC3CC(C(=O)O)C3)nc2CC2CCCCC2)nc(C(C)(C)C)n1 (stereo not drawn) [19/13] | 6.5 |  | 
16 |  |  |  |  |  | CC(C)(O)CNC(=O)c1nc(CC2CCCCC2)c(-c2ccc(S(=O)(=O)NC(C)(C)C)c3cccc(F)c23)s1 [19/14] | 6.4/6.8/6.9 | 6.4/6.8/6.9 | 6.4/6.8/6.9
17 |  |  |  |  |  | CC(C)(O)CNC(=O)c1nc(CC2CCC2)c(-c2ccc(S(=O)(=O)NC(C)(C)C)c3ccccc23)s1 [21/2] | 6.8/8.4/8.5 | 6.8/8.4/8.5 | 6.8/8.4/8.5
18 |  |  | 398 nM | 10 nM | 5.01 nM | CC(C)(C)NS(=O)(=O)c1ccc(-c2sc(C(=O)N[C@H]3C[C@H](C(=O)O)C3)nc2CC2CCCCC2)c(OC(F)F)c1Cl [21/3] |  |  | 
19 |  |  |  |  |  | CC(C)(O)CNC(=O)c1nc(CC2CCCCC2)c(-c2ccc(S(=O)(=O)NC(C)(C)C)c(Cl)c2OC(F)F)s1 [21/4] | 6.9/8.2/8.4 | 6.9/8.2/8.4 | 6.9/8.2/8.4
20 |  |  |  |  |  | O=C(c1nc(CC2CCCCC2)c(-c2ccc(S(=O)(=O)NC3CCOCC3)c3ccccc23)s1)N1CC2(CCS(=O)(=O)CC2)C1 [21/9] | 6.2/7.3/7.4 | 6.2/7.3/7.4 | 6.2/7.3/7.4
21 |  |  |  |  |  | CC(O)c1c(S(=O)(=O)NC(C)(C)C)ccc(-c2sc(C(=O)N3CC4(CCS(=O)(=O)CC4)C3)nc2CC2CCCCC2)c1Cl (stereo not drawn) [21/10] | 5.9/6.7/6.7 | 5.9/6.7/6.7 | 5.9/6.7/6.7

Row | pIC50 (FF) (RORγ; [2]) | pIC50 (REN) (RORγ; [3]) | IC50 [1] | IC50 (RORγ; firefly (FF) luciferase, 293T cells, read-out: pIC50 (FF) (converted)) | IC50 (RORγ; renilla normalised (RENnorm) luciferase, 293T cells, read-out: pIC50 (REN) (converted)) | SMILES | pIC50 (FRET) [1] | pIC50 (FF) (RORγ) | pIC50 (REN) (RORγ)
22 |  |  |  |  |  | CC(C)(C)NS(=O)(=O)c1ccc(-c2sc(C(=O)NC3CCS(=O)(=O)CC3)nc2CC2CCCCC2)c2ccncc12 [21/13] | 6.3/7.9/7.9 | 6.3/7.9/7.9 | 6.3/7.9/7.9
23 |  |  |  |  |  | CC(C)(C)NS(=O)(=O)c1ccc(-c2oc(C(=O)N[C@H]3C[C@H](C(=O)O)C3)nc2CC2CCCCC2)cc1C(C)(C)C [100/2] | 5.5/6.4/6.3 | 5.5/6.4/6.3 | 5.5/6.4/6.3
24 |  |  |  |  |  | CN(C(=O)c1nc(CC2CCCCC2)c(-c2ccc(S(=O)(=O)NC(C)(C)C)c3ccccc23)o1)C1CCOCC1 [100/4] | 6.6/7.1/7.3 | 6.6/7.1/7.3 | 6.6/7.1/7.3
25 |  |  |  |  |  | CC(C)(C)NS(=O)(=O)c1ccc(-c2oc(C(=O)NCC3(O)CCOCC3)nc2CC2CCCCC2)c2ccccc12 [100/5] | 6.3/8.1/8.2 | 6.3/8.1/8.2 | 6.3/8.1/8.2
26 |  |  |  |  |  | CC(C)(C)NS(=O)(=O)c1ccc(-c2oc(C(=O)NC3CCS(=O)(=O)CC3)nc2CC2CCCCC2)c2ccccc12 [100/6] | 6.4/8.5/8.4 | 6.4/8.5/8.4 | 6.4/8.5/8.4
27 |  |  |  |  |  | CC(C)(O)CNC(=O)c1nc(CC2CCCCC2)c(-c2ccc(S(=O)(=O)NC(C)(C)C)c3ccccc23)o1 [100/7] | 6.6/7.7/7.9 | 6.6/7.7/7.9 | 6.6/7.7/7.9
28 |  |  |  |  |  | CC(C)(C)NS(=O)(=O)c1ccc(-c2oc(C(=O)NCC3(O)CCS(=O)(=O)CC3)nc2CC2CCCCC2)c2ccccc12 [100/8] | 6.5/8.0/8.2 | 6.5/8.0/8.2 | 6.5/8.0/8.2
29 |  |  |  |  |  | CC(C)(C)NS(=O)(=O)c1ccc(-c2oc(C(=O)N3CC4(CCS(=O)(=O)CC4)C3)nc2CC2CCCCC2)c2ccccc12 [100/9] | 6.3/8.5/8.5 | 6.3/8.5/8.5 | 6.3/8.5/8.5
30 |  |  |  |  |  | CC(C)(C)NS(=O)(=O)c1ccc(-c2oc(C(=O)N3CC4(CCOCC4)C3)nc2CC2CCCCC2)c2ccccc12 [100/10] | 6.4/7.2/7.4 | 6.4/7.2/7.4 | 6.4/7.2/7.4
31 |  |  |  |  |  | CC(C)(C)NS(=O)(=O)c1ccc(-c2oc(C(=O)N3CC4(CCSCC4)C3)nc2CC2CCCCC2)c2ccccc12 [100/11] | 6.8/7.1/7.3 | 6.8/7.1/7.3 | 6.8/7.1/7.3
32 |  |  |  |  |  | CC(C)(C)NS(=O)(=O)c1ccc(-c2oc(C(=O)N[C@H]3C[C@H](C(=O)O)C3)nc2CC2CCCCC2)c2ccccc12 [100/13] | 6.1/7.0/7.1 | 6.1/7.0/7.1 | 6.1/7.0/7.1
33 |  |  |  |  |  | CC(C)(C)NS(=O)(=O)c1ccc(-c2oc(C(=O)NC34CCC(C(=O)O)(CC3)CC4)nc2CC2CCCCC2)c2ccccc12 [100/14] | 5.8/7.9/7.9 | 5.8/7.9/7.9 | 5.8/7.9/7.9
34 |  |  |  |  |  | CC(C)(O)CNC(=O)c1nc(CC2CCCCC2)c(-c2ccc(S(=O)(=O)NC(C)(C)C)c(Cl)c2Cl)o1 [100/15] | 6.4/7.4/7.5 | 6.4/7.4/7.5 | 6.4/7.4/7.5
35 |  |  |  |  |  | CC(C)(C)NS(=O)(=O)c1ccc(-c2oc(C(=O)NC3CCS(=O)(=O)CC3)nc2CC2CCCCC2)c(Cl)c1Cl [100/16] | 6.6/8.4/8.2 | 6.6/8.4/8.2 | 6.6/8.4/8.2
36 |  |  |  |  |  | CC(C)(C)NS(=O)(=O)c1ccc(-c2oc(C(=O)N[C@H]3C[C@H](C(=O)O)C3)nc2CC2CCCCC2)c(Cl)c1Cl [100/17] | 6.1/7.1/7.0 | 6.1/7.1/7.0 | 6.1/7.1/7.0
37 |  |  |  |  |  | CC(C)(C)c1cc(-c2oc(C(=O)NC3CCOCC3)nc2CC2CCCCC2)cc(C2(C)CC2)c1 [100/18] | 6.9/6.9/6.9 | 6.9/6.9/6.9 | 6.9/6.9/6.9
38 |  |  |  |  |  | CC(C)(CNC(=O)c1nc(CC2CCCCC2)c(-c2cc(C(C)(C)C)cc(C3(C)CC3)c2)o1)C(=O)O [100/19] | 5.9/6.6/6.6 | 5.9/6.6/6.6 | 5.9/6.6/6.6
39 |  |  |  |  |  | CC(C)(C)c1cc(-c2oc(C(=O)N[C@H]3C[C@H](C(=O)O)C3)nc2CC2CCCCC2)cc(C2(C)CC2)c1 [100/20] | 6.0/6.8/7.0 | 6.0/6.8/7.0 | 6.0/6.8/7.0
40 |  |  |  |  |  | CC(C)(C)NS(=O)(=O)c1ccc(-c2oc(C(=O)NC3CCC(C)(C(=O)O)CC3)nc2CC2CCCCC2)c2ccccc12 (stereo not drawn) [100/22] | 5.9/6.8/7.0 | 5.9/6.8/7.0 | 5.9/6.8/7.0
41 |  |  |  |  |  | CC(C)(C)NS(=O)(=O)c1ccc(-c2oc(C(=O)NC34CCC(C(=O)O)(CC3)C4)nc2CC2CCCCC2)c2ccccc12 [100/23] | 6.1/8.3/8.4 | 6.1/8.3/8.4 | 6.1/8.3/8.4
